Values of other authors as cited in patent publication US9125900B2 (priority 2005, dated 2015).
Where two headings read alike, the source gives them in different places.

Legend:
respiratory neurons [1] = conditions: for morphine-induced suppression of respiratory neuronal activity: anesthetized rats
respiratory neurons [2] = test system: respiratory neurons
5-HT4a receptor isoform = 5-HT4a receptor isoform (Homo sapiens, UniProt Q13639)
5-HT7 receptor = 5-HT7 receptor (Homo sapiens, UniProt P34969)
5-HT7 receptor, sequence (P34969 whole entry): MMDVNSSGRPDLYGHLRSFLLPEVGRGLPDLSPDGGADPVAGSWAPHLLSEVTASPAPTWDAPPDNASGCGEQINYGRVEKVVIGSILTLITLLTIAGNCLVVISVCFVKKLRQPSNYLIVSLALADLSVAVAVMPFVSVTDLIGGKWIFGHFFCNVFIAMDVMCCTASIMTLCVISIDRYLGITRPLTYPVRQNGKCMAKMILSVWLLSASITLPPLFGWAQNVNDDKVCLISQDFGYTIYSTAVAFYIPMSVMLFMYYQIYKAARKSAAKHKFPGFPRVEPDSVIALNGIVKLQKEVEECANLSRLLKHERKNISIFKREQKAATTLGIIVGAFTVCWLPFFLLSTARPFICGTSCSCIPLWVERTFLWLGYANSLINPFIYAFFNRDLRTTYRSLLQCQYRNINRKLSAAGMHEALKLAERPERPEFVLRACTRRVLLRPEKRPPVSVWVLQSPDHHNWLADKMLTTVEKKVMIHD

5-HT4a receptor isoform, sequence (Q13639 1-387 isoform Q13639-2): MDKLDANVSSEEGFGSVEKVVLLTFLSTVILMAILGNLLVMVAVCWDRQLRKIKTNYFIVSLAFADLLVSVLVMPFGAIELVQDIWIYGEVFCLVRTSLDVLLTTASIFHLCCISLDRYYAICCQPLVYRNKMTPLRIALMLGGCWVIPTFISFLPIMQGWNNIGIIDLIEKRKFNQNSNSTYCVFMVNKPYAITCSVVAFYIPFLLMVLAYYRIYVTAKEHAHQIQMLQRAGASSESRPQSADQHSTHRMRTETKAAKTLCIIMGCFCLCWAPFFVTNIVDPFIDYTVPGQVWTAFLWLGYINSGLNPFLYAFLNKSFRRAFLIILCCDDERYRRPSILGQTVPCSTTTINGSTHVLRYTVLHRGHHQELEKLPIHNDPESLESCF

SMILES | depressant effects on respiratory neurons (respiratory neurons [1]; 100 μg/kg, rats) | morphine-induced suppression of respiratory neuronal activity (respiratory neurons [1]) | phrenic nerve discharges (respiratory neurons [2]; anesthetized cats, higher doses 50 and 90 μg/kg) | phrenic nerve discharges (respiratory neurons [2]; anesthetized cats, lower doses 10-50 μg/kg) | pentobarbital- and ketamine-induced suppression of respiratory neurons (respiratory neurons [2]; cats) | phrenic nerve discharges (respiratory neurons [2]; cats, 20 μg/kg intravenously) | respiratory frequency or ventilation rate (hypoxic goats) | receptor activity (5-HT4a receptor isoform) | receptor activity (5-HT7 receptor)
CCCN(CCC)C1CCc2cccc(O)c2C1 (racemic) [8-OH-DPAT, 8-hydroxy-2-(di-n-propylamino)tetralin] | no depressant effects on rat respiratory neurons | reversed the morphine-induced suppression of neuronal activity | suppressed phrenic nerve discharges | increased the frequency of phrenic nerve discharges | reverse pentobarbital- and ketamine-induced suppression of respiratory neurons | phrenic nerve discharges were decreased | did not increase respiratory frequency or ventilation rate | – | –
COc1cc(N)c(Cl)cc1C(=O)NC1CN2CCC1CC2.Cl (racemic) [zacopride, 4-amino-N-1-azabicyclo[2.2.2] oct-3-yl-5-chloro-2-methoxybenzamide hydrochloride] | – | – | – | – | – | – | – | agonist of the 5-HT4a receptor isoform | –
O=C1CC2(CCCC2)CC(=O)N1CCCCN1CCN(c2ncccn2)CC1 [buspirone] | – | reversed the suppression | – | – | – | – | – | – | no effect on the 5-HT7 receptor
